{"source": "patent US8816095B2", "about": "“Na channels, disease, and related assays and compositions” (Georgetown University, priority 2008, dated 2014)", "key": {"hNav1.7": {"biological_target": "T1, hNav1.7 (Homo sapiens, UniProt Q15858)", "T1 construct": "expressed in transfected cells; host or cells: HEK293", "T1 sequence (Q15858 whole entry, canonical isoform)": "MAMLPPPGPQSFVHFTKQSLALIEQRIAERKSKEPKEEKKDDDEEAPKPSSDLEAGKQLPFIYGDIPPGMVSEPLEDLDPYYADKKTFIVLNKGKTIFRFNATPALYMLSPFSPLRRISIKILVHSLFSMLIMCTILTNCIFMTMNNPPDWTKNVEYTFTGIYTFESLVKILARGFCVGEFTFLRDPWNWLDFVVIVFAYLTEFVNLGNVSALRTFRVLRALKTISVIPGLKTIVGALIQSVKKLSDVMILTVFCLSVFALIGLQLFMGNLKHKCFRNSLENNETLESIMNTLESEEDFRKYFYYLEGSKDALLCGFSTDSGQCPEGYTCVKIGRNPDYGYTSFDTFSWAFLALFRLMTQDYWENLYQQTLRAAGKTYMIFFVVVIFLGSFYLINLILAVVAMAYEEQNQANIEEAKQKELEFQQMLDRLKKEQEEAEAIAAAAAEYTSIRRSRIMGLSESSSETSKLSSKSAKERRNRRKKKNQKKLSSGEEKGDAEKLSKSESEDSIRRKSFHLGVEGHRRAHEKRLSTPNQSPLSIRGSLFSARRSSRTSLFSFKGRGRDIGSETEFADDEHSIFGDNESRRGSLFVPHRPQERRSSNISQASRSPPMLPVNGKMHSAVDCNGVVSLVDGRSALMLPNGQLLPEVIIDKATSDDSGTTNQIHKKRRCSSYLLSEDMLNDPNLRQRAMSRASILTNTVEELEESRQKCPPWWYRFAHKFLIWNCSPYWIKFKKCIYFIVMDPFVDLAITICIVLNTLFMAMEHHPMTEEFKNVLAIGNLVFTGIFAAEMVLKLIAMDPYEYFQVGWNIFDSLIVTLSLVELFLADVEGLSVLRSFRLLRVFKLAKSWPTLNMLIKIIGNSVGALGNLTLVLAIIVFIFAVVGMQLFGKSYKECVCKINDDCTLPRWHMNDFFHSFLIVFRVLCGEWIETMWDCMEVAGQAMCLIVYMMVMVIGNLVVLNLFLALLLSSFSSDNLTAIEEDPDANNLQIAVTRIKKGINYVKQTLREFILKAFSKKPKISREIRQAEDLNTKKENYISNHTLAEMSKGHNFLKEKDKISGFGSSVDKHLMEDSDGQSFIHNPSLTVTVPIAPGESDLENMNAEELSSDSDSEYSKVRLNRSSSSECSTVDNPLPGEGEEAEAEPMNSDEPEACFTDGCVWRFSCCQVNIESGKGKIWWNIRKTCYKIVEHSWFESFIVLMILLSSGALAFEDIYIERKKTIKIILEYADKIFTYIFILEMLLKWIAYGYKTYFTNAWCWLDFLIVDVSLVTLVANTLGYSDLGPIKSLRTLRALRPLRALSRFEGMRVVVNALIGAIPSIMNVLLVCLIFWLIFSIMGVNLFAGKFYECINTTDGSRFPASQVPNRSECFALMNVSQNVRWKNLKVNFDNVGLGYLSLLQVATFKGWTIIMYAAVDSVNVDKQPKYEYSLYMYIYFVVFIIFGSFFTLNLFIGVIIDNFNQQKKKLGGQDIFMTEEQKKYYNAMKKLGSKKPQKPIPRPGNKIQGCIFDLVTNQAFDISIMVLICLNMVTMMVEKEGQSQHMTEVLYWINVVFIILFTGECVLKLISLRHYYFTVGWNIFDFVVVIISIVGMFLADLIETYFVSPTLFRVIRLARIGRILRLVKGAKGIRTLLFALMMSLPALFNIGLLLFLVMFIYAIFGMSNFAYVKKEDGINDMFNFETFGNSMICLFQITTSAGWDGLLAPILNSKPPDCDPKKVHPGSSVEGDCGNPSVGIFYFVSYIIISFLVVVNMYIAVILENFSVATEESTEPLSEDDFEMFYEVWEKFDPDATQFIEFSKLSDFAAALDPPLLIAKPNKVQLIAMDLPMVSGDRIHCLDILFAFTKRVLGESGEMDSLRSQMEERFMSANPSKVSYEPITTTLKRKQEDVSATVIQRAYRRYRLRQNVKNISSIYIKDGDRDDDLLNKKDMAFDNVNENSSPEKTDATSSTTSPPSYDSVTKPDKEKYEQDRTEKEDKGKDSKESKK", "experiment": "Fluorescent (FRET) based sodium channel assay, hNav1.7", "type": "cell-based", "details": "HEK293 stably transfected with hNav1.7, 20 μM veratridine, read-out: hNav 1.7 IC50", "description": "Two isoforms of the channel were examined: hNav1.5, a cardiac sodium channel associated with arrhythmias, and hNav1.7, an isoform found in the peripheral nervous system.\nHEK293 cells stably transfected with either hNav1.5 or hNav1.7 were plated at approximately 11,000-20,000 cells/well in flat bottom, poly-D-lysine coated black-wall, clear-bottom, 384-well plates (Becton Dickinson, Bedford, Mass.), and incubated overnight at 37° C. in a 10% CO2 atmosphere in growth medium. Cells were washed with 0.03 mL of Dulbecco's phosphate buffered saline (D-PBS) containing calcium and magnesium. Cells were then incubated with 0.025 mL of a solution containing 10 μM CC2-DMPE and 0.02% pluronic acid in D-PBS with calcium and magnesium; supplemented with 10 mM glucose, and 10 mM Hepes-NaOH, pH 7.4. […] Afterwards, cells were incubated in the dark at 25° C. for 45 min with 0.025 mL of a solution containing 5 μM DiSBAC2(3) in VIPR-S, in the absence or presence of test compound. At the end of the incubation period, the plate was placed in a FLIPR TETRA instrument (MDS Analytical Technologies, Sunnyvale Calif.), illuminated at 390-420 nm, and fluorescence emissions were recorded at approximately 1 Hz at 460 and 580 nm. Following a 7 second baseline reading, 0.025 mL of VIPR-S containing 10 μM veratridine for Nav1.5 or 20 μM veratridine for Nav1.7 was added to each well, and the emissions of both dyes were recorded for an additional 33 seconds. The change in fluorescence resonance energy transfer (FRET) ratio (F/F0) was calculated as: F/F0=((A460/A580/(I460/I580) where A and I represent the readings after or before addition of veratridine, respectively, at the indicated wavelengths. For I, the readings from 2-5 seconds were averaged, and for A, readings from 3 seconds after the signal had reached a plateau level (usually within 30-40 s) were also averaged. Triplicate measurements were performed for each experimental condition and the data were averaged."}, "[1]": {"test_system": "human prostate xenograft PC3", "experiment": "PC3 xenograft study", "type": "in vivo", "details": "mice bearing PC3 xenografts; 10 mg/kg ip every other day", "description": "Intraperitoneally (ip) 10 mg/kg of racemic (±)-1 and each enantiomer was administered in mice bearing PC3 xenografts (FIG. 16). This dose was administered qd every other day for 24 days and effects on reducing the tumor volume were measured.\nPC-3 cell line (ATCC, Manassas, Va.) was cultured in RPMI-1640 with L-glutamine (Mediatech Inc., Herdon, Va.) containing 5% fetal bovine serum (FBS), 2.5 mM L-glutamine at 37° C. with 5% CO2.\nMale athymic balbc/nude mice (18-22 g) were injected with 3×106 (0.3 mL) of the human prostate cancer cells (PC3). The human prostate cancer cells were injected in the subcutaneous tissue of the right axillary region of the mice. One week after the injection, the mice were randomly sorted into four groups with 6 mice per group. […] The stock of each compound was added to polyethylene glycol 400 (PEG) (Hampton) and PBS in a 1:1 ratio. The test concentrations were obtained by diluting with PEG/PBS. The tumor-bearing mice received an intraperitoneal injection (IP) with either 10 mg/kg of (±)-1, R-(−)-1 or S-(+)-1 or vehicle control respectively once every other day for 4 weeks. At the same time, the tumor size of each mouse was measured by caliper and calculated by the formula: Length×width×height/2."}, "CWR22rv-1 cells": {"test_system": "CWR22rv-1 cells", "experiment": "CWR22rv-1 prostate cancer cell death (propidium iodide, FACS)", "type": "cell-based, human", "description": "CWR22Rv1 cells (ATCC, Manassas, Va.) were seeded in 6 well tissue culture plate at density of 300,000 cells/well and maintained in RPMI 1640 (Mediatech, Herndon, Va.) containing 10% fetal bovine serum, 2.5 mM L-glutamine, and penicillin-streptomycin (100 IU/ml and 100 μg/ml, respectively) at 37° C. with 5% CO2. Cells were then switched to serum free RPMI media overnight prior to drug treatment. Compounds were dissolved in 100% dimethylsulfoxide (DMSO) and diluted to the desired concentrations in serum free RPMI. Cells were treated with indicated drug concentrations (in triplicate per treatment point) for 24, 48, 72 hour. After treatment, cells were harvested by trypsinization and fixed in 70% ethanol. The fixed cells were then stained with propidium iodide (50 μg/ml) after treatment with RNase (5 μg/ml). The stained cells were analyzed for DNA content using FACSsort (Becton Dickinson). Cell cycle fractions were quantified with Cell Quest (Becton Dickinson) or ModFit LT (Verity Software House)."}, "hERG potassium channels": {"biological_target": "T2, hERG potassium channels (Homo sapiens, UniProt Q12809)", "T2 construct": "expressed in transfected cells; host or cells: HEK-293 (membranes)", "T2 sequence (Q12809 whole entry)": "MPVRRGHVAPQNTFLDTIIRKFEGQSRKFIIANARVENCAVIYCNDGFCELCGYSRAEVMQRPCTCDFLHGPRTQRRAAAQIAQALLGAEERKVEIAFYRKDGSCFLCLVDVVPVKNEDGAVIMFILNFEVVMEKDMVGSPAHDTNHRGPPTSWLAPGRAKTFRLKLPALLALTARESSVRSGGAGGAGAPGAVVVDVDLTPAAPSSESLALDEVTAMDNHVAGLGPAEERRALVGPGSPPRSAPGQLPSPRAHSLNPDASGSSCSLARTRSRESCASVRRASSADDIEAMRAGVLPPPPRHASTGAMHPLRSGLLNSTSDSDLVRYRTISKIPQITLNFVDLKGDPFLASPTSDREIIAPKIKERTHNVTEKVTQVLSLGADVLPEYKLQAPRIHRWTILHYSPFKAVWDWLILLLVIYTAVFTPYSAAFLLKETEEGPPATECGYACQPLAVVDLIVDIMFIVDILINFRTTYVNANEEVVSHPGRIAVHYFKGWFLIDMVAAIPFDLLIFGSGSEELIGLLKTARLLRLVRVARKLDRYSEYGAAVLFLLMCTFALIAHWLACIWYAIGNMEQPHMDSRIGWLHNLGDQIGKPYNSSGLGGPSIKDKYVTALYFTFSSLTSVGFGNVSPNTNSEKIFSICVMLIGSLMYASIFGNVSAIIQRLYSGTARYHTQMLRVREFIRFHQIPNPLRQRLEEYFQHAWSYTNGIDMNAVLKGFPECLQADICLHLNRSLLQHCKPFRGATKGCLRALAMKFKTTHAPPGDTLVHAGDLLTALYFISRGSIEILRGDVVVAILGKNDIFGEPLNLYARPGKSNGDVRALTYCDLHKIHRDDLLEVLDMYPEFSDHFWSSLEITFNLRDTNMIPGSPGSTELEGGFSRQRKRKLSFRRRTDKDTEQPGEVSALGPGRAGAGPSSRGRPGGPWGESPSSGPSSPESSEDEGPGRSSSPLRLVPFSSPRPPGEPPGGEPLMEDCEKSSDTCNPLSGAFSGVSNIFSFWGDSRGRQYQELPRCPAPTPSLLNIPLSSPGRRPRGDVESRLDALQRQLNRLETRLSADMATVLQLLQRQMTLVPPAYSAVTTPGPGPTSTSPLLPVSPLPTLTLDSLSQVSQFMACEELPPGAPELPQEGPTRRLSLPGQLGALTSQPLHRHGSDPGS", "experiment": "hERG binding assay ([35S]MK-499 displacement)", "details": "[35S]MK-499, HEK-293 hERG membranes", "excerpt": "All four compounds were also counter-screened for human ether-a-go-go-related gene (hERG) activity against the radio-ligand MK-0499. Blockade of hERG K^+ channels is widely regarded as the predominant cause of drug-induced QT prolongation. (Aronov, A J Med Chem. 2006 Nov. 16; 49(23):6917-21).\nMK-499, a potent hERG blocker, was used in a ligand binding assay to evaluate the binding of test compounds to hERG potassium channels as previously described (Wang, J et al. Am J Physiol Heart Circ Physiol, 2003, 284: H256-H267).^2 Test compounds were incubated with 0.05 nM of radiolabeled MK-499 ([35S]MK-499; specific Activity=1,279,010 μCi/μmol) in an assay buffer solution (70 mM NaCl, 60 mM KCl, 10 mM HEPES/NaOH (pH 7.4), 2 mM MgCl2, 1 mM CaCl2) also containing membranes isolated from HEK-293 cells stably expressing hERG channels in 96 well polypropylene deep-well assay plates at room temperature (25° C.) for >90 min. Assay plates were rinsed three time with buffer (130 mM NaCl, 10 mM HEPES/NaOH (pH 7.4), 2 mM MgCl2, 1 mM CaCl2) and the solution transferred to a Packard FilterMate Universal Harvester apparatus and filtered using PerkinElmer UniFilter-96 GF/C 96-well white microplates pre-soaked with 0.3% BSA (10 mL/L of 30% BSA). Plates were dried overnight at 37° C., or for 2 hrs at 56° C. The bottom of the plates were sealed and 0.025 mL of Microscint 0 was added to each well. The plates were top sealed and counted for 2 min/well in a Packard TopCount Scintillation counter. Test compounds were evaluated in a five point titration format using half-log steps from 0.3 μM to 30 μM. […] Less than 5% of the added radioactivity was retained on the filters. Assays were performed in triplicate."}, "[2]": {"details": "mouse, in vivo, ip"}}}
{"smiles": "CCCCCCCC(O)(C(N)=O)c1cccc(Cl)c1", "note": "(racemic) [(±)-1, 2-(3-chloro-phenyl)-2-hydroxy-nonanoic acid amide]", "values": [{"measurement": "IC50", "setting": "hNav1.7", "value": 1810, "unit": "nM"}, {"measurement": "decrease in tumor volume", "setting": "[1]", "value": 62, "unit": "%"}, {"measurement": "cell death of CWR22rv-1 cells", "setting": "CWR22rv-1 cells; 25 μM, after 24 h", "value": "marginal effects"}, {"measurement": "cell death of CWR22rv-1 cells", "setting": "CWR22rv-1 cells; after 72 h", "value": 25, "unit": "%"}, {"measurement": "% inhibition for hERG assay, 0.3 μM", "setting": "hERG potassium channels; 0.3 μM", "value": 15, "unit": "%"}, {"measurement": "% inhibition for hERG assay, 1 μM", "setting": "hERG potassium channels; 1 μM", "value": 17, "unit": "%"}, {"measurement": "% inhibition for hERG assay, 3 μM", "setting": "hERG potassium channels; 3 μM", "value": 15, "unit": "%"}, {"measurement": "% inhibition for hERG assay, 10 μM", "setting": "hERG potassium channels; 10 μM", "value": 51, "unit": "%"}, {"measurement": "% inhibition for hERG assay, 30 μM", "setting": "hERG potassium channels; 30 μM", "value": 78, "unit": "%"}, {"measurement": "acute rotorod toxicity observations", "setting": "[2]", "value": "No deaths, spasms, respiratory disease was reported"}]}
